Measured values taken from publication PMC11802874, “The hypolipidemic effect of MI-883, the combined CAR agonist/ PXR antagonist, in diet-induced hypercholesterolemia model” (Nature Communications, 2025).
Where “and” joins values, the source holds several entries; their conditions need not be identical. Identical values can stand only once.

How the values were obtained:
[1] = Metabolic stability in human liver S9 fraction
Procedure: (§1) Shimadzu HPLC system including vacuum degasser, gradient pumps, reverse phase HPLC column, column oven, and autosampler with an API 4000 QTRAP mass spectrometer (Applied Biosystems/MDS Sciex (AB Sciex) with Turbo V ion source and TurboIonspray interface were used. The reference compound midazolam, which is metabolized both by phase I and phase II enzymes, was used. The elimination constant (kel), half-life (t1/2), and intrinsic clearance (Clint) were determined[19] (Table S1).
Supplementary Figure 1. […] Test compounds (1 μM, final DMSO concentration 1%) were incubated at 37 °C with shaking at 100 rpm. Four time points over 120 minutes have been analyzed. The reactions were stopped by adding 420 μL of acetonitrile-water mixture (90:10). Supernatants were analyzed by the HPLC system coupled with a tandem mass spectrometer. The percentage (in % of initial concertation) of the test compounds remaining after incubation in plasma and their half-lives (t1/2) were calculated. […] The stability of the compound was tested in human liver S9 fraction. Cofactors were used such as UDPGA (for glucuronidation), PAPS (for sulfation), and reduced glutathione (for conjugation of GSH). Compounds were tested in triplicate with or without NADPH. Propantheline and midazolam were used as unstable control compounds in the experiments. Data represent the means±S.D. from at least three independent samples.

[2] = Metabolic stability in mouse liver S9 fraction; details: male, CD-1, mouse, s9
Procedure: as §1

[3] = test system: HepaRG KO CAR cells; assay: RT-qPCR mRNA expression in HepaRG KO CAR cells; format: cell-based, human; details: Phenobarbital 500 μM, CITCO 1 μM, MI 883 1 μM; ctrl = 1
Text: (§2) HepaRG cells from Biopredic (Rennes, France) were cultivated and differentiated on the 12-well plates. […] Several batches of HepaRG KO CAR (CAR Knockout HepaRG™ Cells, MTOX1012-1VL, RRID:CVCL_B6AA) and PXR Knockout HepaRG™ Cells, MTOX1011-1VL, RRID:CVCL_B6AS) cells have been obtained from Sigma-Aldrich/Merck (Darmstadt, Germany) and cultivated according to the provider’s protocols. […] Experiments with HepaRG KO PXR and HepaRG KO CAR cells have been performed in duplicates at least in two independent experiments.
(§3) RT-qPCR was used to examine gene expression in 2D and 3D PHH, HepaRG cells, or in mouse liver or intestine (ileum) samples as we have described before[60]–[62].
(§4) All qRT-qPCR experiments including Trizol reagent (Life Technologies) total RNA isolation, reverse-transcription using a random hexaprimer, and the MMLV Reverse Transcriptase Kit (ThermoFisher Scientific) we have described before^19. qPCR was performed using TaqMan Fast Advanced Master Mix with TaqMan probes (ThermoFisher Scientific). […] The delta-delta method was used for gene expression quantification normalized to at least two reference genes. Three technical replicates were used for each reaction considering the MIQE guidelines. Data are presented as fold induction to vehicle-treated cells/animals.

[4] = test system: PXR-responsive CYP3A4(pER6)-luc construct; assay: CYP3A4(pER6)-luc luciferase reporter assay in HepG2 cells
[5] = test system: LS174T cells (endogenous PXR); assay: CYP3A4 mRNA RT-qPCR in LS174T cells
Text: LS174T human colon adenocarcinoma cells (RRID:CVCL_1384) were used in induction experiments with the subsequent CYP3A4 mRNA RT-qPCR analysis as they express functional endogenous PXR.

[6] = test system: murine Car; details: cited from earlier work
[7] = target: T1, CAR-LBD (Homo sapiens, UniProt Q14994); assay: MARCoNI CAR-LBD coregulator interaction array; format: biochemical; details: 100 μM
T1 construct: HIS-tagged CAR-LBD (ThermoFisher Sciences, Cat. No PV4836); purchased ThermoFisher PV4836
Procedure: The reaction was performed in a fully automated microarray processing and fluorescent imaging platform (PamStation12) at 20 °C for 80 cycles (two cycles per minute). After removal of the unbound CAR-LBD receptor by washing each array with 25 µl Tris-buffered Saline (TBS) buffer, fluorescent images of the PamChip microarrays were obtained using the PamStation12, and then were analyzed for quantification of CAR binding using BioNavigator software (PamGene International B.V.). For data and statistical analysis, BioNavigator was used.
Modulation index (MI) is the log10-transformed relative binding value, which is calculated by the compound’s binding value, relative to the vehicle control (DMSO) binding value.

[8] = test system: HepaRG cells; assay: RT-qPCR mRNA expression in differentiated HepaRG cells
Text: as §2, §3, §4

[9] = normal mice, ref 10 of the reply (Dempsey et al.)

T1 sequence (Q14994 109-348 isoform Q14994-2 limits assumed): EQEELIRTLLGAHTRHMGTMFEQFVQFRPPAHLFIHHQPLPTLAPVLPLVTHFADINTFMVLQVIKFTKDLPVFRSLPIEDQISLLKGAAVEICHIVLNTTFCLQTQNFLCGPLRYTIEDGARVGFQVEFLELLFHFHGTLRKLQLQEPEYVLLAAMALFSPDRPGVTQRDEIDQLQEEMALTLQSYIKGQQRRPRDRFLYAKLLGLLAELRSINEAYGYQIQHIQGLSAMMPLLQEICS

## Cc1ncc2n1-c1ccc(Cl)cc1C(c1ccccc1F)=NC2 [Midazolam, midazolam]
[1]; human, s9
  half-life at 2 µM: 6.3 ± 0.3 min
  microsomal CLint at 2 µM: 55 ± 2.5 µL/min/mg
[1]; time 0 (min), 2 μM
  Stability in S9 fraction (human liver), % remaining: 100
[1]; time 20
  Stability in S9 fraction (human liver), % remaining: 94
[1]; time 40
  Stability in S9 fraction (human liver), % remaining: 53
[1]; time 60
  Stability in S9 fraction (human liver), % remaining: 18
[1]; time 120
  Stability in S9 fraction (human liver), % remaining: 1
[2]
  half-life: 3.1 min
  microsomal CLint: 113 µL/min/mg

## CCC1(c2ccccc2)C(=O)NC(=O)NC1=O [Phenobarbital]
[3]
  CYP2B6 mRNA, RT-qPCR, HepaRG KO CAR (Fig. 1f), replicates: 2.7 and 1.95 and 2.4

## CCOP(=O)(OCC)C(=Cc1cc(C(C)(C)C)c(O)c(C(C)(C)C)c1)P(=O)(OCC)OCC [SR12813]
[4]; single agent 1μM, ctrl ~1
  pER6-luc luciferase gene reporter assay (Fig1 m), replicates: 6.4 and 6.3 and 4.7
[4]; single agent 10μM
  pER6-luc luciferase gene reporter assay (Fig1 m), replicates: 11.93 and 6.55 and 11
[5]; single agent 1μM, ctrl = 1
  RT-qPCR in LS174T (Fig 1 l, CYP3A4 mRNA), replicates: 1.75 and 3.85 and 3.1

## Clc1cnc(Oc2ccc(Oc3ncc(Cl)cc3Cl)cc2)c(Cl)c1 [TCPOBOP]
[6]; Ldlr –/– mice
  suppression of atherosclerotic lesions in the aortic valves: 60%
[6]; after 2 months
  decrease of cholesterol content in the liver: 25%
  decrease of cholesterol content in the whole body: ~50%
[6]; mice
  increase of fecal excretion of 3H-labeled bile acids: ~ 40%
[6]; [9]
  colon bsh activity compared to control animals: 30%
  increase of colon unconjugated and total BA pools (not significant): about 1.4 fold

## Clc1ccccc1C(c1ccccc1)(c1ccccc1)n1ccnc1 [clotrimazole, reference compound]
[7]
  CAR-coregulator interaction profile: releasing most of the coactivator proteins

## CO[C@H]1/C=C/O[C@@]2(C)Oc3c(C)c(O)c4c(O)c(c(/C=N/N5CCN(C)CC5)c(O)c4c3C2=O)NC(=O)/C(C)=C\C=C\[C@H](C)[C@H](O)[C@@H](C)[C@@H](O)[C@@H](C)[C@H](OC(C)=O)[C@@H]1C [rifampicin, reference compound]
[8]; Supplementary Fig. 10b
  PCSK9 mRNA in HepaRG cells: Marginal effect
[8]; rifampicin (5 μM)
  SQLE mRNA in HepaRG cells: weakly but significantly upregulated

## SPA70 [reference compound]
[4]; Rif 1μM + SPA70 10μM
  pER6-luc luciferase gene reporter assay (Fig1 m), replicates: 1.57 and 1.64 and 1.5
[4]; SR12813 1μM + SPA70 10μM
  pER6-luc luciferase gene reporter assay (Fig1 m), replicates: 1.2 and 2 and 3.55
[4]; single agent 1μM, ctrl ~1
  pER6-luc luciferase gene reporter assay (Fig1 m), replicates: 1.15 and 1.67 and 1.39
[4]; single agent 10μM
  pER6-luc luciferase gene reporter assay (Fig1 m), replicates: 1 and 1.1 and 1.26
[5]; Rif 1μM + test compound 10μM
  RT-qPCR in LS174T (Fig 1 l, CYP3A4 mRNA), replicates: 0.37 and 0.6 and 0.8
[5]; SR12813 1μM + test compound 10μM
  RT-qPCR in LS174T (Fig 1 l, CYP3A4 mRNA), replicates: 0.46 and 0.35 and 0.34
[5]; single agent 10μM
  RT-qPCR in LS174T (Fig 1 l, CYP3A4 mRNA), replicates: 0.29 and 0.5 and 0.49
[8]
  basal expression of SQLE mRNA in HepaRG cells: downregulated
[8]; MI-883 at 1 μM, SPA70
  rifampicin induction of SQLE mRNA in HepaRG cells: abrogated
[8]; SPA70 1 μM
  CYP2B6 expression relative to control (replicates): 0.7099 and 0.6385
[8]; SPA70 1 μM + CITCO (1 μM)
  CYP2B6 expression relative to control (replicates): 0.8 and 0.8395 and 0.9953
[8]; SPA70 5 μM
  CYP2B6 expression relative to control (replicates): 0.4419 and 0.6247 and 0.5722
[8]; SPA70 5 μM + Rif (5 μM)
  CYP2B6 expression relative to control (replicates): 0.8063 and 0.705 and 0.7533
  CYP3A4 expression relative to control (replicates): 1.181 and 0.9078 and 1.057
[8]; SPA70 10 μM
  CYP2B6 expression relative to control (replicates): 0.4185 and 0.6476 and 0.5707 and 0.3103
[8]; SPA70 10 μM + CITCO (1 μM)
  CYP2B6 expression relative to control (replicates): 0.9283 and 0.5126 and 0.8752
[8]; SPA70 10 μM + Rif (5 μM)
  CYP2B6 expression relative to control (replicates): 0.4242 and 0.5514 and 0.5133
  CYP3A4 expression relative to control (replicates): 0.8451 and 0.9487 and 0.8513 and 0.8231
[8]; SPA70 20 μM
  CYP2B6 expression relative to control (replicates): 0.8031 and 0.3464
[8]; SPA70 20 μM + CITCO (1 μM)
  CYP2B6 expression relative to control (replicates): 1.219 and 0.6292 and 0.9541
[8]; SPA70 20 μM + Rif (5 μM)
  CYP2B6 expression relative to control (replicates): 0.5214 and 0.5645
  CYP3A4 expression relative to control (replicates): 0.8451 and 0.7532
[8]; Supplementary Fig. 10
  rifampicin-induced and basal CYP3A4 and CYP2B6 mRNA expression in HepaRG cells: suppressed

## SPA-70
[8]; SPA-70 1 μM
  CYP3A4 expression relative to control (replicates): 0.8854 and 0.7984
[8]; SPA-70 1 μM + Rif (5 μM)
  SQLE expression relative to control (mean): 0.6659
[8]; SPA-70 1 μM, 48 h
  SQLE expression relative to control (mean): 0.6886
[8]; SPA-70 5 μM
  CYP3A4 expression relative to control (replicates): 0.7429 and 0.6513 and 0.7215
[8]; SPA-70 5 μM + Rif (5 μM)
  SQLE expression relative to control (mean): 0.7312
[8]; SPA-70 5 μM, 24 h
  SQLE expression relative to control (mean): 0.9488
[8]; SPA-70 5 μM, 48 h
  SQLE expression relative to control (mean): 0.6267
[8]; SPA-70 10 μM
  CYP3A4 expression relative to control (replicates): 0.443 and 0.6539 and 0.5479 and 0.7562
[8]; SPA-70 10 μM + Rif (5 μM)
  SQLE expression relative to control (mean): 0.7448
[8]; SPA-70 10 μM, 24 h
  SQLE expression relative to control (mean): 0.7277
[8]; SPA-70 10 μM, 48 h
  SQLE expression relative to control (mean): 0.6494
[8]; SPA-70 20 μM
  CYP3A4 expression relative to control (replicates): 0.5871 and 0.5215
[8]; SPA-70 20 μM + Rif (5 μM)
  SQLE expression relative to control (mean): 0.8792
[8]; SPA-70 20 μM, 48 h
  SQLE expression relative to control (mean): 0.7487
